Patent publication US6417195B1, “Isoquinoline derivatives and isoquinoline combinatorial libraries” (Lion Bioscience AG, priority 1999, dated 2002)

tested on: Streptococcus pyogenes; assay: Anti-microbial screen; type: cell-based; details: growth at 4 hrs, OD 570 nm, Todd Hewitt Broth
Description: Streptococcus pyogenes (ATCC# 97-03 14289) were grown in Todd Hewitt Broth (THB) (Difco Laboratories #0492-17-6) overnight until they reached an optical density of (OD═0.636@ 570 nm) by reading 0.1 ml in a 96 well microtiter plate in a Molecular Devices Thermomax. This preparation was kept frozen as stocks in 30% v/v glycerol in 1.5 ml aliquots at −70° C. until use. Prior to experiments 1.5 ml aliquots were thawed and diluted into 50 ml THB. 200 ul of this dilution was added to 92 wells of microtiter plate. To three wells THB (200 ul) was added to serve as a blank and a sterility control. Test compounds in DMSO and appropriate concentrations of DMSO were added to Growth/Solvent Controls at 0 time. Plates were read at 0 time at 570 nm in the Molecular Devices plate reader to obtain compounds correction factors for insoluble or colored compounds. Plates were read again at 4 hrs.
Percent inhibition was calculated with the following formulae:
Color correct=(O.D. 0 hr−Blank 0 hr)−(Solvent Control 0 hr−Blank 0 hr)
% Inhibition=100−O.D. test compound 4 hr−Blank 4 hr−color correct
O.D. growth/solvent control 4 hr−Blank 4 hr

SMILES | % Inhibition
CN(C)CCN(CC(N)=O)C(=O)CCN1C(=O)c2ccccc2C(C(=O)NCCN2CCCC2)C1c1ccc(O)c(O)c1 (stereo not drawn) [Compound 2520-1] | 9%
CN(C)CCN(CC(N)=O)C(=O)CCN1C(=O)c2ccccc2C(C(=O)NC2CCC(C(C)(C)C)CC2)C1c1ccc(O)c(O)c1 (stereo not drawn) [Compound 2520-2] | 94%
CCCCN(CCCC)CCN(CC(N)=O)C(=O)CCN1C(=O)c2ccccc2C(C(=O)NCCN(CC)c2cccc(C)c2)C1c1ccc(O)c(O)c1 (stereo not drawn) [Compound 2520-721] | 86%
CCCCOCCCNC(=O)C1c2ccccc2C(=O)N(CCC(=O)N(CCN(CCCC)CCCC)CC(N)=O)C1c1ccc(O)c(O)c1 (stereo not drawn) [Compound 2520-722] | 58%
CCN1CCCC1CN(CC(N)=O)C(=O)CCN1C(=O)c2ccccc2C(C(=O)NCCCN2CCCCC2C)C1c1cccc([N+](=O)[O-])c1 (stereo not drawn) [Compound 2520-2341] | 104%
CCN(CCNC(=O)C1c2ccccc2C(=O)N(CCC(=O)N(CC(N)=O)Cc2ccccc2)C1c1ccc(N(C)C)cc1)c1cccc(C)c1 (stereo not drawn) [Compound 2520-3137] | 66%
CCCCOCCCNC(=O)C1c2ccccc2C(=O)N(CCC(=O)N(CC(N)=O)Cc2ccccc2)C1c1ccc(N(C)C)cc1 (stereo not drawn) [Compound 2520-3138] | 19%
CCOC(=O)CC(C)NC(=O)C1c2ccccc2C(=O)N(CCC(=O)N(CCN(C)C)CC(N)=O)C1c1cccc(Oc2ccccc2)c1 (stereo not drawn) [Compound 2520-4745] | 99%
C=CCNC(=O)C1c2ccccc2C(=O)N(CCC(=O)N(CCN(C)C)CC(N)=O)C1c1cccc(Oc2ccccc2)c1 (stereo not drawn) [Compound 2520-4746] | 100%
CCN(CCNC(=O)C1c2ccccc2C(=O)N(CCC(=O)N(CC(N)=O)NC(=O)OC)C1c1cc(C(F)(F)F)cc(C(F)(F)F)c1)c1cccc(C)c1 (stereo not drawn) [Compound 2520-5545] | 86%
CCCCOCCCNC(=O)C1c2ccccc2C(=O)N(CCC(=O)N(CC(N)=O)NC(=O)OC)C1c1cc(C(F)(F)F)cc(C(F)(F)F)c1 (stereo not drawn) [Compound 2520-5548] | 43%
CCN1CCCC1CN(CC(N)=O)C(=O)CCN1C(=O)c2ccccc2C(C(=O)N2CCN(Cc3ccccc3)CC2)C1c1ccc(-c2ccccc2)cc1 (stereo not drawn) [Compound 2520-6332] | 98%
CCN1CCCC1CN(CC(N)=O)C(=O)CCN1C(=O)c2ccccc2C(C(=O)N2CCN(C)CC2)C1c1ccc(-c2ccccc2)cc1 (stereo not drawn) [Compound 2520-6333] | 78%
CCN1CCCC1CN(CC(N)=O)C(=O)CCN1C(=O)c2ccccc2C(C(=O)NCCCN2CCCCC2C)C1c1ccc(N(C)C)cc1 (stereo not drawn) [Compound 2520-7125] | 100%
CCOC(=O)CCNC(=O)C1c2ccccc2C(=O)N(CCC(=O)N(CC(N)=O)CC2CCCN2CC)C1c1ccc(N(C)C)cc1 (stereo not drawn) [Compound 2520-7126] | 26%
CCN(CCNC(=O)C1c2ccccc2C(=O)N(CCC(=O)N(CC(N)=O)CC2CCCN2CC)C1c1ccc(SC)cc1)c1cccc(C)c1 (stereo not drawn) [Compound 2520-7921] | 100%
CCCCOCCCNC(=O)C1c2ccccc2C(=O)N(CCC(=O)N(CC(N)=O)CC2CCCN2CC)C1c1ccc(SC)cc1 (stereo not drawn) [Compound 2520-7922] | 87%

SMILES | % Inhibition
CN(C)CCN(CC(N)=O)C(=O)c1ccc(CN2C(=O)c3ccccc3C(C(=O)NCCN3CCCC3)C2c2ccccc2)cc1 (stereo not drawn) [Compound 2530-1] | 44%
CN(C)CCN(CC(N)=O)C(=O)c1ccc(CN2C(=O)c3ccccc3C(C(=O)NCc3cccnc3)C2c2ccccc2)cc1 (stereo not drawn) [Compound 2530-2] | 51%
NC(=O)CN(CCN1CCCCC1)C(=O)c1ccc(CN2C(=O)c3ccccc3C(C(=O)NCCN3CCCC3)C2c2ccccc2)cc1 (stereo not drawn) [Compound 2530-865] | 20%
NC(=O)CN(CCN1CCCCC1)C(=O)c1ccc(CN2C(=O)c3ccccc3C(C(=O)NCc3cccnc3)C2c2ccccc2)cc1 (stereo not drawn) [Compound 2530-866] | 11%
CCCN(CC(N)=O)C(=O)C1CCC(CN2C(=O)c3ccccc3C(C(=O)NCCN3CCCC3)C2c2cccc(C)n2)CC1 (stereo not drawn) [Compound 2530-1537] | 4%
CCCN(CC(N)=O)C(=O)C1CCC(CN2C(=O)c3ccccc3C(C(=O)NCc3cccnc3)C2c2cccc(C)n2)CC1 (stereo not drawn) [Compound 2530-1538] | 15%
NC(=O)CN(CCN1CCOCC1)C(=O)c1ccc(CN2C(=O)c3ccccc3C3C(=O)N4CCN(Cc5ccccc5)c5c(-c6ccccc6)ccc(c54)C32)cc1 (stereo not drawn) [Compound 2530-2501] | 109%
CCN(CC)CCCC(C)NC(=O)C1c2ccccc2C(=O)N(Cc2ccc(C(=O)N(CC(N)=O)CC3CCCN3CC)cc2)C1c1ccc(O)cc1 (stereo not drawn) [Compound 2530-3185] | 4%
CCN1CCCC1CN(CC(N)=O)C(=O)c1ccc(CN2C(=O)c3ccccc3C(C(=O)NC3CCC(C(C)(C)C)CC3)C2c2ccc(O)cc2)cc1 (stereo not drawn) [Compound 2530-3186] | 101%
CCc1ccc(C2C(C(=O)NCCN(C)C)c3ccccc3C(=O)N2Cc2ccc(C(=O)N(CCOC)CC(N)=O)cc2)cc1 (stereo not drawn) [Compound 2530-4162] | 30%
CSc1ccc2c3c1C(Br)CCN3C(=O)C1c3ccccc3C(=O)N(Cc3ccc(C(=O)N(CCc4ccc(Cl)cc4Cl)CC(N)=O)cc3)C21 (stereo not drawn) [Compound 2530-4401] | 45%
CSc1ccc(C2C(C(=O)NCCN(C)C)c3ccccc3C(=O)N2Cc2ccc(C(=O)N(CCc3ccc(Cl)cc3Cl)CC(N)=O)cc2)cc1 (stereo not drawn) [Compound 2530-4402] | 96%
CC(C)(C)C1CCC(NC(=O)C2c3ccccc3C(=O)N(CC3CCC(C(=O)N(CCCn4ccnc4)CC(N)=O)CC3)C2c2ccccc2)CC1 (stereo not drawn) [Compound 2530-4818] | 61%
NC(=O)CN(CCCn1ccnc1)C(=O)C1CCC(CN2C(=O)c3ccccc3C3C(=O)N4CCC(N5CCCC5)c5cccc(c54)C32)CC1 (stereo not drawn) [Compound 2530-4819] | 20%
C=CCN(CC(N)=O)C(=O)c1ccc(CN2C(=O)c3ccccc3C3C(=O)N4CCOc5c(O)ccc(c54)C32)cc1 (stereo not drawn) [Compound 2530-6447] | 8%
C=CCN(CC(N)=O)C(=O)c1ccc(CN2C(=O)c3ccccc3C(C(=O)NCCCCCCCCCCCC)C2c2ccc(O)cc2)cc1 (stereo not drawn) [Compound 2530-6448] | 53%
